Experiments:
[1] = system: Alternaria solani; assay: Alternaria solani (early blight of tomatoes), tomato leaf disks; assay type: in vivo; details: foliar, inoculated 2 days after application, compared to untreated control
Experimental: Alternaria solani (Early Blight of Tomatoes) Tomato leaf disks are placed on agar in multiwell plates (24-well format) and sprayed with the formulated test compound diluted in water. The leaf disks are inoculated with a spore suspension of the fungus 2 days after application. The inoculated leaf disks are incubated at 23° C./21° C.

[2] = system: Glomerella lagenarium; assay: Glomerella lagenarium syn. Colletotrichum lagenarium (anthracnose of cucurbits), liquid culture growth inhibition; assay type: cell-based; details: Colletotrichum orbiculare, nutrient broth (PDB), 72 hrs, photometric at 620 nm, compared to untreated control
Experimental: Glomerella lagenarium Syn. Colletotrichum lagenarium (Anthracnose of Cucurbits): Conidia of the fungus from cryogenic storage were directly mixed into nutrient broth (PDB potato dextrose broth). A DMSO solution of the test compounds was placed into a microtiter plate (96-well format) and the nutrient broth containing the fungal spores was added to it. The test plates were incubated at 24° C. and the inhibition of growth was determined photometrically after 72 hrs at 620 nm. […]

[3] = system: Erysiphe graminis f. sp. tritici; assay: Erysiphe graminis f. sp. tritici (wheat powdery mildew), wheat leaf segments, preventive; assay type: in vivo; details: Blumeria graminis, foliar, 168 h, 7 dpi, compared to untreated control
Experimental: (§1) Wheat leaf segments are placed on agar in multiwell plates (24-well format) and sprayed with test solutions. After drying, the leaf disks are inoculated with spores of the fungus. After appropriate incubation the activity of a compound is assessed 7 dpi (days post inoculation) as preventive fungicidal activity.

[4] = system: Monographella nivalis; assay: Monographella nivalis syn. Microdochium nivale (snow mould, foot rot of cereals), liquid culture growth inhibition; assay type: cell-based; details: nutrient broth (PDB), 72 hrs, photometric at 620 nm, compared to untreated control
Experimental: Conidia of the fungus from cryogenic storage were directly mixed into nutrient broth (PDB potato dextrose broth). A DMSO solution of the test compounds was placed into a microtiter plate (96-well format) and the nutrient broth containing the fungal spores was added to it. The test plates were incubated at 24° C. and the inhibition of growth was determined photometrically after 72 hrs at 620 nm. […] Cercospora arachidicola (Brown Leaf Spot of Peanut): […]

[5] = system: Mycosphaerella arachidis; assay: Mycosphaerella arachidis syn. Cercospora arachidicola (brown leaf spot of peanut), liquid culture growth inhibition; assay type: cell-based; details: nutrient broth (PDB), approximately 5-6 days, photometric at 620 nm, compared to untreated control
Experimental: Conidia of the fungus from cryogenic storage were directly mixed into nutrient broth (PDB potato dextrose broth). A DMSO solution of the test compounds was placed into a microtiter plate (96-well format) and the nutrient broth containing the fungal spores was added to it. The test plates were incubated at 24° C. and the inhibition of growth was determined photometrically after approximately 5-6 […] at 620 nm.

[6] = system: Plasmopara viticola; assay: Plasmopara viticola (downy mildew of grapevine), grape vine leaf disks, preventive; assay type: in vivo; details: foliar, 168 h, 7 dpi, compared to untreated control
Experimental: as §1, with “Grape vine” for “Wheat”, “disks” for “segments”, “a spore suspension” for “spores”, “after” for “post”

[7] = system: Puccinia recondita f. sp. tritici; assay: Puccinia recondita (brown rust), curative, wheat leaf segments; assay type: in vivo; details: foliar, 192 h, sprayed 1 day after inoculation, 8 dpi, compared to untreated control
Experimental: Wheat leaf segments are placed on agar in multiwell plates (24-well format). The leaf segments are inoculated with a spore suspension of the fungus and sprayed with test solutions 1 day after inoculation. After appropriate incubation the activity of a compound is assessed 8 dpi (days after inoculation) as curative fungicidal activity.

[8] = system: Puccinia recondita f. sp. tritici; assay: Puccinia recondita (brown rust), preventative, wheat leaf segments; assay type: in vivo; details: foliar, 192 h, 8 dpi, compared to untreated control
Experimental: as §1, with “segments” for “disks”, “a spore suspension” for “spores”, “8” for “7”, “after” for “post”, “preventative” for “preventive”

[9] = system: Pyricularia oryzae; assay: whole plant or invertebrate; assay type: in vivo; details: foliar, 120 h, read-out: control of Pyricularia oryzae
[10] = system: Phakopsora pachyrhizi; assay: Phakopsora pachyrhizi (soybean rust), soybean leaf disks, preventive; assay type: in vivo; details: foliar, 288 h, approx. 12 dpi, compared to untreated control
Experimental: as §1, with “Soybean” for “Wheat”, “disks” for “segments”, “a spore suspension” for “spores”, “approx. 12” for “7”, “after” for “post”

SMILES | pest or weed control at 200 ppm [1] | inhibition of growth at 20 ppm [2] | pest or weed control at 200 ppm [3] | inhibition of growth at 20 ppm [4] | inhibition of growth at 20 ppm [5] | pest or weed control at 200 ppm [6] | pest or weed control at 200 ppm [7] | pest or weed control at 200 ppm [8] | pest or weed control at 200 ppm [9] | pest or weed control at 60 ppm [10]
CO/C=C(\Oc1cc(C2=CCC(C(F)F)CC2)ccc1C)C(=O)OC (stereo not drawn) [F.7, methyl (Z)-2-[5-[4-(difluoromethyl)cyclohexen-1-yl]-2-methyl-phenoxy]-3-methoxy-prop-2-enoate] | ≥ 80% | ≥ 80% | ≥ 80% | ≥ 80% | ≥ 80% | ≥ 80% | ≥ 80% | ≥ 80% |  | 
CO/C=C(\Oc1cc(C2=CC(C)(C)CCC2=O)ccc1C)C(=O)OC [F.1, methyl (Z)-2-[5-(3,3-dimethyl-6-oxo-cyclohexen-1-yl)-2-methyl-phenoxy]-3-methoxy-prop-2-enoate] | ≥ 80% | ≥ 80% | ≥ 80% |  |  | ≥ 80% |  | ≥ 80% | ≥ 80% | 
CO/C=C(\Oc1cc(C2CCC2)ccc1C)C(=O)OC [E.12, methyl (Z)-2-(5-cyclobuty1-2-methyl-phenoxy)-3-methoxy-prop-2-enoate] |  | ≥ 80% | ≥ 80% | ≥ 80% | ≥ 80% | ≥ 80% | ≥ 80% | ≥ 80% | ≥ 80% | ≥ 70%
CO/C=C(\Oc1cc(C2=CCCCC2)c(F)cc1C)C(=O)OC [F.6, methyl (Z)-2-[5-(cyclohexen-1-yl)-4-fluoro-2-methyl-phenoxy]-3-methoxy-prop-2-enoate] |  | ≥ 80% | ≥ 80% | ≥ 80% | ≥ 80% | ≥ 80% | ≥ 80% | ≥ 80% |  | ≥ 70%
CO/C=C(\Oc1cc(C2CC2)ccc1C)C(=O)OC [E.14, methyl (Z)-2-(5-cyclopropy1-2-methyl-phenoxy)-3-methoxy-prop-2-enoate] |  | ≥ 80% | ≥ 80% | ≥ 80% | ≥ 80% | ≥ 80% |  | ≥ 80% |  | ≥ 70%
CO/C=C(\Oc1cc(C2=CCC(F)(F)CC2)ccc1C)C(=O)OC [F.3, methyl (Z)-2-[5-(4,4-difluorocyclohexen-1-yl)-2-methyl-phenoxy]-3-methoxy-prop-2-enoate] |  | ≥ 80% | ≥ 80% | ≥ 80% | ≥ 80% | ≥ 80% |  | ≥ 80% |  | ≥ 70%
CCON=C1CCC(c2ccc(C)c(O/C(=C\OC)C(=O)OC)c2)CC1 (stereo not drawn) [E.21, methyl (Z)-2-[5-(4-ethoxyiminocyclohexyl)-2-methyl-phenoxy]-3-methoxy-prop-2-enoate] |  | ≥ 80% | ≥ 80% | ≥ 80% | ≥ 80% | ≥ 80% | ≥ 80% | ≥ 80% | ≥ 80% | ≥ 70%
CO/C=C(\Oc1cc(C2=CCCCC2)ccc1C)C(=O)OC [F.2, methyl (Z)-2-[5-(cyclohexen-1-yl)-2-methyl-phenoxy]-3-methoxy-prop-2-enoate] |  | ≥ 80% | ≥ 80% |  |  | ≥ 80% | ≥ 80% | ≥ 80% |  | ≥ 70%

— US12262710B2, “Fungicidal compounds” (SYNGENTA CROP PROTECTION AG, priority 2019, dated 2025)
